# Activity calls are given as the source filed them. The rule behind the calls is not given here.
# Tested on: Anticarsia gemmatalis
# Assay: Insecticidal activity against Anticarsia gemmatalis (velvetbean caterpillar) third-instar larvae exposed to compound through topical dosing at mesothorax region assessed as induction of larval mortality
# Format: functional
SMILES,LD50,LD10 [µg/µL],inhibition
C=C1C=C(C)[C@]2(C)CC[C@@H](C)[C@](C)(CC/C(C)=C/C(=O)O)[C@H]2C1,inactive,–,–
O=C1OC[C@H](Cc2ccc3c(c2)OCO3)[C@H]1Cc1ccc2c(c1)OCO2,inactive,–,–
COc1ccc(C[C@H]2COC(=O)[C@@H]2Cc2ccc3c(c2)OCO3)cc1OC [(-)-KUSUNOKININ],230.1 µg/µL,9.3,Dose-dependent effect
